Measurements: ChEMBL document CHEMBL4043198, “Synthesis and electronic properties of ester substituted 1,4-dicyanodibenzodioxins and evaluation of anti-proliferative activity of all isomeric 1,2-, 2,3- and 1,4-dicyanodibenzodioxins against HeLa cell line” (Bioorg Med Chem Lett, 2017)
Active and inactive are the calls of the source. The rule behind the calls is not given here.

How the values were obtained:
[1] = system: HeLa; assay: Cytotoxicity against human HeLa cells assessed as reduction in cell viability at 2 to 50 uM after 24 hrs by MTT assay relative to control; type: functional
[2] = system: HeLa; assay: Cytotoxicity against human HeLa cells assessed as reduction in cell viability after 24 hrs by MTT assay; type: functional, cell-based
[3] = system: HeLa; assay: Cytotoxicity against human HeLa cells assessed as cell viability at 2 uM after 24 hrs by MTT assay relative to control; type: functional; conditions: read-out: Activity
[4] = system: HEK293; assay: Cytotoxicity against HEK293 cells assessed as reduction in cell viability at 2 to 5 uM after 24 hrs by MTT assay; type: cell-based; conditions: human, hek293, 24 h
[5] = system: HeLa; assay: Induction of morphological changes in human HeLa cells assessed as rounding-off of cells after 24 hrs by Hoechst 33258 staining based fluorescence microscopic analysis; type: functional, cell-based
[6] = system: HeLa; assay: Induction of morphological changes in human HeLa cells assessed as nuclear fragmentation after 24 hrs by Hoechst 33258 staining based fluorescence microscopic analysis; type: functional, cell-based
[7] = system: HeLa; assay: Induction of morphological changes in human HeLa cells assessed as loss of cell shape after 24 hrs by Hoechst 33258 staining based fluorescence microscopic analysis; type: functional
[8] = system: HeLa; assay: Induction of reactive oxygen species generation in human HeLa cells at 5 to 10 uM after 24 hrs by DCFDA dye-based fluorescence assay; type: functional, cell-based
[9] = species: Bos taurus; assay: Binding affinity to calf thymus DNA assessed as intrinsic binding constant by UV spectrophotometry

| SMILES | Activity [1] | Activity [2] | IC50 [2] [nM] | viability at 2 µM [3] [%] | Activity [4] | Activity [5] | Activity [6] | Activity [7] | Activity [8] | logKb [9] |
| --- | --- | --- | --- | --- | --- | --- | --- | --- | --- | --- |
| N#Cc1cc2c(cc1C#N)Oc1cc([N+](=O)[O-])ccc1O2 | 70 - 80% | – | – | – | – | – | – | – | – | – |
| COC(=O)c1cccc2c1Oc1c(C#N)c(F)c(F)c(C#N)c1O2 | – | Dose-dependent effect | 1570 | 35 | Non-Toxic | Dose-dependent effect | Dose-dependent effect | Dose-dependent effect | Active | 6 |
| COC(=O)c1ccc2c(c1)Oc1c(C#N)c(F)c(F)c(C#N)c1O2 | – | Dose-dependent effect | 2990 | 50 | Non-Toxic | Dose-dependent effect | Dose-dependent effect | Dose-dependent effect | Active | 5.39 |
| O=c1[nH]cc(F)c(=O)[nH]1 [FLUOROURACIL] | – | – | 2900 | – | – | – | – | – | – | – |
| N#Cc1c(F)c(F)c2c(c1C#N)Oc1ccccc1O2 | – | Dose-dependent effect | 42200 | – | Non-Toxic | – | – | – | – | – |
| CCN(CC)c1c(F)c(C#N)c2c(c1C#N)Oc1ccccc1O2 | – | Dose-dependent effect | 1470 | 30 | Non-Toxic | Dose-dependent effect | Dose-dependent effect | Dose-dependent effect | Active | 5.5 |
| N#Cc1cc2c(cc1C#N)Oc1ccccc1O2 | 70 - 80% | Dose-dependent effect | – | – | Non-Toxic | – | – | – | – | – |
| N#Cc1cc2c(cc1C#N)Oc1cc(Br)ccc1O2 | 70 - 80% | Dose-dependent effect | 8820 | – | Non-Toxic | – | – | – | – | – |
| N#Cc1c(F)c(F)c(C#N)c2c1Oc1ccccc1O2 | 70 - 80% | Dose-dependent effect | 9620 | – | Non-Toxic | – | – | – | – | – |
| CC/C(=C(\c1ccccc1)c1ccc(OCCN(C)C)cc1)c1ccccc1 [TAMOXIFEN] | – | – | 8850 | – | – | – | – | – | – | – |
| COc1c(F)c(C#N)c2c(c1C#N)Oc1ccccc1O2 | – | Dose-dependent effect | 1450 | 30 | Non-Toxic | Dose-dependent effect | Dose-dependent effect | Dose-dependent effect | Active | 5.38 |
